The source made the active and inactive calls. The calls are words filed in the database; no cut-off is given here.
How the values were obtained:
HepG2 = assay: Cytotoxicity against human HepG2 cells assessed as cell growth inhibition incubated for 1 day by neutral red assay; format: functional, cell-based; conditions: HepG2, 24 h
Plasmodium falciparum [1] = assay: Antiplasmodial activity against chloroquine-sensitive erythrocytic stage Plasmodium falciparum 3D7 assessed as inhibition of parasite growth incubated for 3 days by HRP2-ELISA; format: functional, organism-based; conditions: 3D7, 72 h
[2] = Selectivity index, ratio of IC50 for human HepG2 cells to IC50 for […] erythrocytic stage Plasmodium falciparum 3D7; format: toxicity; conditions: read-out: Selectivity Index
Plasmodium berghei = assay: Antiplasmodial activity against hepatic stage Plasmodium berghei infected in Huh-7 cells assessed as cell viability incubated for 1 hrs by bioluminescence assay; format: functional, organism-based; conditions: for IC50: Huh-7, 1 h
Plasmodium falciparum [3] = assay: Antiplasmodial activity against chloroquine-resistant erythrocytic stage Plasmodium falciparum Dd2 assessed as inhibition of parasite growth incubated for 3 days by HRP2-ELISA; format: functional, organism-based; conditions: Dd2, 72 h

Row | SMILES | IC50 (HepG2) [µM] | IC50 (Plasmodium falciparum [1]) [µM] | selectivity ratio [2] | Activity (Plasmodium berghei) | IC50 (Plasmodium falciparum [3]) [µM] | IC50 (Plasmodium berghei) [µM]
1 | Cc1nc(Cn2cc(COC(=O)/C=C/c3ccc(Cl)cc3)nn2)cc2c1[nH]c1ccccc12 | 70.5 | 21.4 | 3.29 | Active | > 27.8 | –
2 | Cc1nccc2c1[nH]c1ccc(OCc3cn(C/C=C/c4cccc(Br)c4)nn3)cc12 | 6.13 | 0.26 | 23.6 | Active | 0.73 | –
3 | Cc1nc(CNC(=O)/C=C/c2ccc(C(F)(F)F)cc2)cc2c1[nH]c1ccccc12 | 33.3 | 2.3 | 14.5 | Active | 5.97 | –
4 | O=C(/C=C/c1cccc(Br)c1)OCc1cn(Cc2nccc3c2[nH]c2ccccc23)nn1 | – | > 13.2 | – | – | > 19.1 | –
5 | Cc1nc(CO)cc2c3ccccc3n(Cc3cn(C/C=C/c4ccc(Cl)cc4)nn3)c12 | – | > 19.9 | – | Active | > 23.6 | –
6 | Cc1nc(CNC(=O)/C=C/c2ccc(F)cc2)cc2c1[nH]c1ccccc12 | 12.5 | 4.13 | 2.99 | Active | 13.3 | –
7 | COc1ccc(/C=C/C(=O)OCc2cn(Cc3cc4c([nH]c5ccccc54)c(C)n3)nn2)cc1 | – | > 27.8 | – | Active | > 27.8 | –
8 | Cc1nc(CO)cc2c3ccccc3n(Cc3cn(C/C=C/c4ccccc4)nn3)c12 | – | > 27.8 | – | Active | > 19.8 | –
9 | COc1ccc2c3ccnc(C)c3n(CCNC(=O)/C=C/c3ccc(C(F)(F)F)cc3)c2c1 | 5.84 | 0.04 | 146 | – | 0.17 | 8.4
10 | Cc1nccc2c1[nH]c1ccc(OCCNC(=O)/C=C/c3ccc(C(F)(F)F)cc3)cc12 | 3.59 | 0.12 | 29.9 | Active | 0.35 | –
11 | Cc1nc(CO)cc2c3ccccc3n(Cc3cn(C/C=C/c4cccc(Br)c4)nn3)c12 | > 125 | 6.28 | > 19.9 | Active | 18.4 | –
12 | COc1ccc2c3ccnc(C)c3n(CCNC(=O)/C=C/c3cccc(C(F)(F)F)c3)c2c1 | 66.3 | 0.06 | 1110 | – | 0.33 | 1.9
13 | O=C(/C=C/c1ccc(F)cc1)NCc1nccc2c1[nH]c1ccccc12 | – | > 13.9 | – | – | > 13.9 | –
14 | O=C(/C=C/c1ccc(Cl)cc1)NCc1nccc2c1[nH]c1ccccc12 | – | > 27.8 | – | – | > 27.8 | –
15 | COc1ccc(/C=C/Cn2cc(COc3ccc4[nH]c5c(C)nccc5c4c3)nn2)cc1 | 88 | 0.6 | 147 | Active | 1.81 | –
16 | Cc1nc(CNC(=O)/C=C/c2ccccc2)cc2c1[nH]c1ccccc12 | 7.05 | 5.78 | 1.29 | Active | 10.2 | –
17 | O=C(/C=C/c1ccccc1)NCc1nccc2c1[nH]c1ccccc12 | – | > 28 | – | – | > 55.6 | –
18 | Cc1nc(CNC(=O)/C=C/c2cccc(C(F)(F)F)c2)cc2c1[nH]c1ccccc12 | 9.37 | 2.01 | 4.66 | Active | 7.4 | –
19 | Cc1nccc2c1[nH]c1ccc(OCCNC(=O)/C=C/c3cccc(F)c3)cc12 | 37.6 | 1.11 | 33.9 | Active | 1.3 | –
20 | O=C(/C=C/c1cccc(F)c1)NCc1nccc2c1[nH]c1ccccc12 | – | > 27.8 | – | – | > 27.8 | –
21 | COc1ccc2c(c1)[nH]c1c(C)nccc12 [HARMINE] | > 250 | – | 30 | – | > 27.7 | –
22 | COc1ccc(/C=C/C(=O)NCc2cc3c([nH]c4ccccc43)c(C)n2)cc1 | 10.4 | 6.5 | 1.6 | Active | 10.7 | –
23 | Cc1nccc2c1[nH]c1ccc(OCCNC(=O)/C=C/c3cccc(Br)c3)cc12 | 7.57 | 0.19 | 39.8 | Active | 0.63 | –
